Measurements published in patent US20220142209A1, “METHODS AND COMPOSITIONS FOR IMPROVING THE TASTE OF DIET COLA SODAS AND OTHER BEVERAGES” (priority 2019, published 2022).

Assays:
[1] = Informal taste test of additives mixed into DIET COKE; assay type: in vivo, people
Description: To provide enabling context for some of the embodiments disclosed herein, simple formulations are described here (with more enablement in the Exemplary Embodiments below). Pour into a cup about 7.5 ounces of a DIET COKE® that includes just aspartame. Mix in about one to two teaspoons of ENACO ERC-A20 decocainized liquid coca leaf extract, both liquids at room temperature. […] Adding a bag of sugar (5 grams) results in an even more pleasant taste while providing a cola soda with 80% less sugar. Using glucose instead of sugar (sucrose) produce a fructose-free, low-sugar, cola soda.
(§1) Taste and aroma are not separate sensory experiences. For example, when many people are afflicted with the common cold, and have stuffy noses, they can lose some or all of the taste of foods. This is attributed to the odor sensors in the nose being blocked. Also, when many people eat foods, they can have a time dependent sensory experience, as the (chewed) food travels to the back of the mouth and then some of the aromas enter the back of the nasal cavity, due to retronasal smell (versus orthonasal smell due to aromas entering the front of the nasal cavity, for example, when you sniff a rose). Thus, in many of the embodiments disclosed herein, the term “taste and/or aroma” is used. Also, the Exemplary Embodiments that follows, statements in changes in taste and/or aroma are based on the opinions of a few people. Not all people drinking the embodiments disclosed herein will experience the same degree of improvement in taste and/or aroma.
For the exemplary embodiments that follow, the examples are performed with all liquids at room temperature. Sodas typically taste more pleasant at lower temperatures (sodas retain carbonation better at lower temperatures, which creates a better taste for many people). Any improvements in taste and/or aroma resulting from any of the following embodiments at room temperature are similar, if not more pleasant, at lower temperatures down to freezing. Tastes and/or aromas can also vary due to the use of soda container: glass, plastic, metal or paper. There are many who think that cola sodas taste best when consumed from glass bottles. For many of the exemplary embodiments disclosed herein, Bodum PAVINA® Coffee Mugs, double-wall insulated glass mugs, 8-ounce size, are used.
One embodiment of an improved cola beverage product is understood with the following exemplary method and resulting exemplary article of manufacture. Pour about 7.5 ounces of DIET COKE® (about 220 grams—about 222 milliliters) into a container such as a cup. Mix in about one half teaspoon to two teaspoons (about 2.5 to 10 grams—about 2.5 to 10 milliliters) of coca leaf extract, for example, the ERC-A20 liquid coca extract available from ENACO (Lima, Peru) or its equivalents. […] Any coca leaf extract with similar chemical components (see FIG. 4 and FIG. 11, for example) to ERC-A20 (the version of the extract circa 2018/2019) can be used, and the extracts can be added to other diet sodas such as COKE ZERO® and COKE ZERO SUGAR®.

[2] = Taste test of ethyl benzoate in hot unsweetened cacao drink; assay type: in vivo, people; conditions: 5 ml of 24 micrograms per milliliter solution in one cup hot water with about two tablespoons unsweetened cacao powder
Description: as §1
Some of the unpleasant taste of unsweetened cacao can be removed by using ethyl benzoate. In one exemplary embodiment to improve the taste of any brand of unsweetened cacao and/or chocolate made therefrom, prepare one cup of hot water and add about two tablespoons of unsweetened HERSHEY® cacao powder. Mix in 5 milliliters (one teaspoon) of a liquid (e.g., water) solution that has, for example, 24 micrograms per milliliters of ethyl benzoate. […]

[3] = adults and children; cited from earlier work

Structure (SMILES): CCOC(=O)c1ccccc1 [ethyl benzoate]
- taste and/or aroma versus untreated DIET COKE ([1]; about 5 ml (one teaspoon) of about 24 micrograms per milliliter solution in 7.5 ounces DIET COKE): more pleasant
- taste of resulting beverage ([1]; solution of just ethyl benzoate instead of liquid coca leaf extract, about 7.5 ounces DIET COKE): improvement in taste, but lesser of an improvement than with the leaf extract
- pleasantness of resulting beverage [2]: more pleasant

Structure (SMILES): O=C([O-])c1ccccc1.[Na+] [sodium benzoate]
- Coca-Cola taste ([1]; 1/32nd teaspoon (230 milligrams) in 220 ml DIET COKE): No improvement

Structure (SMILES): OC[C@@H](O)[C@H](O)[C@@H](O)CO [xylitol]
- safe amounts [3]: less than 20 grams a day
- taste of resulting beverage ([1]; one teaspoon powdered xylitol dissolved in 1.5 teaspoons ERC-A20, added to 220 ml DIET COKE): An improvement in taste is experienced

Structure (SMILES): CC1=CCC(C(C)C)=CC1 [gamma-terpinene]
- taste of resulting DIET COKE ([1]; one half teaspoon, 40 micrograms/milliliter, in 220 ml DIET COKE): while more pleasant as seen with adding alpha-terpineol, also has less of a “coca cola” taste

Structure (SMILES): COC(=O)c1ccccc1 [methyl benzoate]
- DIET COKE taste ([1]; about 5 ml of solution of about 24 micrograms per milliliter): taste similar to that of using ethyl benzoate

Structure (SMILES): C=CC(C)(O)CCC=C(C)C (stereo not shown) [linalool]
- change in unpleasantness ([1]; one teaspoon, 40 micrograms per milliliter, in 220 ml Diet Coke): little-to-no change

Structure (SMILES): CC1=CCC(C(C)(C)O)CC1 (stereo not drawn) [alpha-terpineol]
- experience of drinking modified DIET COKE ([1]; about one teaspoon of 48 micrograms/milliliter water solution in 220 ml DIET COKE): more pleasant
